Results taken from patent EP4167978B1, “USE OF JUNIPER (JUNIPERUS COMMUNIS) BERRIES EXTRACT, DEOXYPODOP[…] […], AS POSITIVE ALLOSTERIC MODULATORS OF CANNABINOID TYPE 1 RECEPTOR FOR TREATING NEUROPATHIC PAIN AND IN[…]” (Vivacell Biotechnology Espana S.L., priority 2020, dated 2022).

Experiments:
human CB1R [1] = target: T1, human CB1R (Homo sapiens, UniProt P21554); experiment: CB1R positive allosteric modulation (PAM) activity, CRE-luciferase reporter in the presence of the orthosteric agonist CP-55,940; format: cell-based; conditions: for percentage of CB1R activity normalized to 100% stimulation induced by 2.5 µM CP-55,940 alone: HEK293T-CB1-CRE-luc cells, tested at 1, 5, 10 and 25 µg/mL in the presence of 2.5 µM CP-55,940, CB1R activity ≥ 150% is considered CB1R PAM activity; for CB1R PAM activity: result in words, HEK293T-CB1-CRE-luc cells with 2.5 µM CP-55,940
T1 construct: expressed in transfected cells; host or cells: HEK293T (HEK293T-CB1-CRE-Luc)
T1 sequence (P21554 whole entry): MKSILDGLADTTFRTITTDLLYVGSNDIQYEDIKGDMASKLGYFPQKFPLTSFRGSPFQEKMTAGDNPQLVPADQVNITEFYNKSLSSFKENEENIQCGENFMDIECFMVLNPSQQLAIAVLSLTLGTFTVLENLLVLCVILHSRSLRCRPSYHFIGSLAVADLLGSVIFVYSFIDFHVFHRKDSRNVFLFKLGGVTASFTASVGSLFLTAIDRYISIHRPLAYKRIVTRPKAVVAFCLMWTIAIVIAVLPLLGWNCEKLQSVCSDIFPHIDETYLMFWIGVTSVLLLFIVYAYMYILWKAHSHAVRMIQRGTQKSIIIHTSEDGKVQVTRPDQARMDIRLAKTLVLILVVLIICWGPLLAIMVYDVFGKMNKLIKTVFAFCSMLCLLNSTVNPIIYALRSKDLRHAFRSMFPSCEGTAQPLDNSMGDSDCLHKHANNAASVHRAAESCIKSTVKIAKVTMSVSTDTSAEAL
Description: The determination of CB1R activity was carried out using the HEK293T-CB1-CRE-Luc cells stably transfected with the human CB1R cDNA, and a construction of CRE-Luc that contains as promoter six consensus cAMP responsive elements (CRE) linked to firefly luciferase reporter gene. The increase in cAMP levels activates the CRE-Luc system, inducing the expression of the luciferase reporter gene. Briefly, HEK293T-CB1-CRE-Luc cells were cultured in supplemented DMEM (Sigma) medium containing 10% FBS (Gibco) and 1% antibiotics penicillin/streptomycin (Sigma) (DMEM complete medium) and maintained at 37° C in a humidified atmosphere of 5% CO2. The day before the assay 10^4 cells per well were seeded in 96 well-plates and incubated overnight. For determining CB1R positive allosteric modulation (PAM) activity, HEK293T-CB1-CRE-Luc cells were treated with increasing concentrations of the fractions for 30 min and then treated with the CB1R orthosteric agonist CP-55,940 at 2.5 µM. For CB1R agonistic activity, HEK293T-CB1-CRE-Luc cells were treated with increasing concentrations of the fractions. CP-55,940 alone, a CB1R orthosteric agonist, was used at 2.5 µM as positive control of cAMP signaling pathway activated by a CB1R-dependent orthosteric mechanism; and cells without stimulus were used as negative control. In both assays, after 6 h of stimulation, cells were washed twice with PBS 1X and lysed in 100 µL lysis buffer containing 25 mM Tris-phosphate (pH 7.8), 8 mM MgCl2, 1 mM DTT, 1% Triton X-100, and 7% glycerol during 15 min at room temperature in a horizontal shaker. Luciferase activity was measured using a TriStar2 Berthold/LB942 multimode reader (Berthold Technologies) following the instructions of the luciferase assay kit (Promega, Madison, Wl, USA). The RLUs (relative light units) were calculated and: (i) For allosteric activity, results were expressed as percentage of CB1R activity normalized to 100% stimulation induced by 2.5 µM CP-55,940, according to the following formula: Percentage of CB1R activity = 100 * (T - B) / (C - B); where T are the RLUs of the cells treated with the fractions and 2.5 µM CP-55,940; C are the RLUs of the cells treated with CP-55,940 alone, and B are the RLUs of the cells without stimulus. CB1R activity ≥ 150% was considered CB1R PAM activity (ii) For the CB1R agonistic activity, results were expressed as a fold change over non-stimulated cells according to the following formula: Fold change of CB1R activity = T / B; where T are RLUs of the cells treated with the fractions and B are the RLUs of the cells without stimulus. CB1R activity ≥ 2.5-fold increase is considered CB1R agonistic activity.

human CB1R [2] = target: T1, human CB1R; experiment: CB1R agonistic activity, CRE-luciferase reporter without CP-55,940; format: cell-based; conditions: HEK293T-CB1-CRE-luc cells, compound alone
Description: The determination of CB1R activity was carried out using the HEK293T-CB1-CRE-Luc cells stably transfected with the human CB1R cDNA, and a construction of CRE-Luc that contains as promoter six consensus cAMP responsive elements (CRE) linked to firefly luciferase reporter gene. The increase in cAMP levels activates the CRE-Luc system, inducing the expression of the luciferase reporter gene. Briefly, HEK293T-CB1-CRE-Luc cells were cultured in supplemented DMEM (Sigma) medium containing 10% FBS (Gibco) and 1% antibiotics penicillin/streptomycin (Sigma) (DMEM complete medium) and maintained at 37° C in a humidified atmosphere of 5% CO2. […] Luciferase activity was measured using a TriStar2 Berthold/LB942 multimode reader (Berthold Technologies) following the instructions of the luciferase assay kit (Promega, Madison, Wl, USA). The RLUs (relative light units) were calculated and: (i) For allosteric activity, results were expressed as percentage of CB1R activity normalized to 100% stimulation induced by 2.5 µM CP-55,940, according to the following formula: Percentage of CB1R activity = 100 * (T - B) / (C - B); where T are the RLUs of the cells treated with the fractions and 2.5 µM CP-55,940; C are the RLUs of the cells treated with CP-55,940 alone, and B are the RLUs of the cells without stimulus. […]

Row | SMILES | percentage of CB1R activity normalized to 100% stimulation induced by 2.5 µM CP-55,940 alone (human CB1R [1]) | CB1R PAM activity (human CB1R [1]) | CB1R PAM activity (human CB1R [1]; listed as Agathadiol) | CB1R agonistic activity on cAMP signaling pathway (human CB1R [2]; at high concentrations, ≥ 2.5-fold increase over non-stimulated cells is considered agonistic) | CB1R agonistic activity on cAMP signaling pathway (human CB1R [2]; at the lower tested concentration)
1 | C=C1CC[C@H]2[C@@](C)(CO)CCC[C@]2(C)[C@H]1CC/C(C)=C/CO [agathadiol, (E)-5-[(1S,4aR,5S,8aR)-5-(hydroxymethyl)-5,8a-dimethyl-2-methylidene-3,4,4a,6,7,8-hexahydro-1H-naphthalen-1-yl]-3-methylpent-2-en-1-ol] | over 1000% | clear CB1R PAM activities at a range of concentrations | increasingly stronger bioactive effect as PAM of CB1R with increasing concentrations | medium CB1R agonistic activity | residual
2 | COc1cc([C@H]2c3cc4c(cc3C[C@@H]3COC(=O)[C@H]32)OCO4)cc(OC)c1OC [deoxypodophyllotoxin, (5S,5aS,8aS)-5-(3,4,5-trimethoxyphenyl)-5a,8,8a,9-tetrahydro-5H-[2]benzofuro[5,6-f][1,3]benzodioxol-6-one] | over 1000% | clear CB1R PAM activities at a range of concentrations | – | – | –
